Data from patent publication US10328062B2, “Biomarkers and use of MET inhibitor for treatment of cancer” (AMGEN, INC., priority 2014, dated 2019).
Read-outs that look alike come from different tables or passages of the source.

Tests used:
[1] = tested on: Alexander; test: 72 hour cancer cell line viability assay (CellTiter-Glo); format: cell-based; conditions: Homo sapiens, Liver, MET copy number Low, focal No, 72 hour viability
Method: (§1) Human cancer cell lines were purchased from ATCC, JCRB, Sigma Aldrich or DSMZ. All cell lines were propagated in growth media per the suppliers' recommendation and maintained in 5% CO2 and 37° C.
(§2) Cancer cell line viability assays were carried out using the CellTiter-Glo Luminescent Cell Viability Assay from Promega (Madison, Wis.). Optimal cell seeding densities were determined using time lapse imaging to maximize signal window and ensure cells were not contact growth inhibited at the 72 hour time point. Cells were seeded in 96 well plates in complete growth media and allowed to adhere to the bottom of the plate by incubation at 37° C. and 5% CO2 overnight. […] Plates were incubated at 37° C. and 5% CO2 for 72 hours. Treated plates were then allowed to equilibrate to room temperature along with, CellTiter-Glo substrate and buffer solution prior to use in the viability assay. CellTiter-Glo substrate vials were reconstituted in 10 mL of buffer solution and added to assay plates in 100 μL/well volumes. Plates were shaken for 2 minutes at 700 rotations per minute with an orbit diameter of 3 mm followed by room temperature incubation for 10 minutes. Plates were then read using an Envision plate reader on luminescent setting.
(§3) Threshold for high vs low MET copy number was set at aCGH log 2 ratio of 2.5. Focal nature of MET copy number increase was defined qualitatively using tiled aCGH results for chromosome 7.

[2] = tested on: CAL-54; test: as above; format: cell-based; conditions: Homo sapiens; CAL-54, Kidney; MET copy number Low, focal No; 72 hour viability
Method: as §1, §2, §3

[3] = tested on: EBC-1; test: as above; format: cell-based; conditions: Homo sapiens; EBC-1, NSCLC; MET copy number High, focal Yes; 72 hour viability
Method: as §1, §2, §3

[4] = tested on: G-361; test: as above; format: cell-based; conditions: Homo sapiens; G-361, Melanoma; MET copy number Low, focal No; 72 hour viability
Method: as §1, §2, §3

[5] = tested on: HCC1395; test: as above; format: cell-based; conditions: Homo sapiens; HCC1395, breast; MET copy number Low, focal No; 72 hour viability
Method: as §1, §2, §3

[6] = tested on: HOP-92; test: as above; format: cell-based; conditions: Homo sapiens; HOP-92, NSCLC; MET copy number Low, focal No; 72 hour viability
Method: as §1, §2, §3

[7] = tested on: Hs 746T; test: as above; format: cell-based; conditions: Homo sapiens, Hs746T, Gastric, MET copy number High, focal Yes, 72 hour viability
Method: as §1, §2, §3

[8] = tested on: NCI-H1573; test: as above; format: cell-based; conditions: Homo sapiens
Method: as §1, §2, §3

[9] = tested on: NCI-H1648; test: as above; format: cell-based; conditions: Homo sapiens; NCI-H1648, NSCLC; MET copy number Low, focal Yes; 72 hour viability
Method: as §1, §2, §3

[10] = tested on: NCI-H2342; test: as above; format: cell-based; conditions: Homo sapiens; NCI-H2342, NSCLC; MET copy number Low, focal No; 72 hour viability
Method: as §1, §2, §3

[11] = tested on: NCI-H820; test: as above; format: cell-based; conditions: Homo sapiens; NCI-H820, NSCLC; MET copy number Low, focal No; 72 hour viability
Method: as §1, §2, §3

[12] = tested on: NUGC-4; test: as above; format: cell-based; conditions: Homo sapiens; NUGC-4, Gastric; MET copy number Low, focal Yes; 72 hour viability
Method: as §1, §2, §3

[13] = tested on: panel of 20 cancer cell lines; test: 72 hour viability assays, sensitivity status over the panel; format: cell-based; conditions: Homo sapiens
Method: as §1
as §2, with “Plates were shaken for 2 minutes at 700 rotations per minute with an orbit diameter of 3 mm followed by room temperature incubation for 10 minutes.” left out
MET copy number for individual cell lines was determined by array comparative genomic hybridization (aCGH) and reported as log 2 ratio of cell line to pooled control DNA from 40 normal donors. […]

[14] = tested on: MET signaling (phospho-MET, phospho-Gab1, phospho-AKT, phospho-ERK) in MKN45, SNU-620 and SNU-5; test: Immunoblot analysis of PI3K and MAPK signaling pathways; format: cell-based, Human; conditions: 100 nM, 2 hours
Method: Cells were seeded in 10 cm dishes at varying densities and allowed to adhere by incubating at 37° C. and 5% CO2 overnight. […] Cells were harvested in 250 μL lysis buffer containing protease and phosphatase inhibitors. For suspension cell lines, cells were pelleted prior to lysis buffer addition. Protein concentrations for individual lysates were measured using a BCA protein assay. 25 μg of protein lysate per sample was resolved on Life Technologies (Carlsbad, Calif.) NuPAGE Bis-Tris gels per manufacturer's. Samples were transferred to nitrocellulose membranes for Western blot analysis. Membranes were blocked in 5% milk prepared in TBST for 1 hour at room temperature. Total and phospho-specific antibodies for specified endpoints were used at 1:1000 dilutions in 5% milk/TBST (total) or 5% BSA/TBST (phospho). Membranes were incubated in the presence of appropriate primary antibody overnight at 4° C. Secondary anti-species-IgG HRP conjugated antibodies were diluted 1:5000 in 5% milk/TBST and incubated in the presence of membranes for 1 hour at room temperature. Membranes were exposed to Thermo Scientific (Waltham, Mass.) Super Signal PICO West ECL detection reagent per manufacturer's recommended protocol and exposed to film to document signal.
Antibodies detecting total and phospho-MET (Y1234/1235), phospho-Gab1 (Y627), total and phospho-AKT (S473), total and phospho-ERK (T202/Y204), cleaved caspase-3, and cleaved PARP were purchased from Cell Signaling Technologies (Beverly, Mass.). The total β-actin antibody was purchased from Thermo Scientific (Waltham, Mass.). Both secondary anti-rabbit and anti-mouse IgG-HRP conjugated antibodies were purchased from Thermo Scientific (Waltham, Mass.).
Subsequent lysates were analyzed by SDS-PAGE and immunoblot using antibodies detecting total and phospho-MET (Y1234/[…]), phospho-Gab1 (Y627), total and phospho-AKT (S473), and total and phospho-ERK 1/2 (T202/Y204).

COCCOc1cnc2ccn([C@H](C)c3nnc4c(F)cc(-c5cnn(C)c5)cn34)c(=O)c2c1 [Compound M, 6-{(1R)-1-[8-fluoro-6-(1-methyl-1H-pyrazol-4-yl)[1,2,4]triazolo[4,3-a]pyridin-3-yl]ethyl}-3-(2-methoxyethoxy)-1,6-naphthyridin-5(6H)-one]
IC50 [1]: > 3 µM | IC50 [2]: > 3 µM | IC50 [3]: 0.008 µM | IC50 [4]: > 3 µM | IC50 [5]: > 3 µM | IC50 [6]: > 3 µM | IC50 [7]: 0.003 µM | IC50 ([8]; NCI-H1573, NSCLC, MET copy number High, focal Yes, 72 hour viability, read-out: IC50): > 3 µM | IC50 ([8]; NCI-H1573, high level focal MET amplification (log 2 ratio=2.9), KRAS G12A, read-out: viability assay IC50): > 3 µM | IC50 [9]: > 3 µM | IC50 [10]: > 3 µM | IC50 [11]: > 3 µM | IC50 [12]: > 3 µM | IC50 ([13]; insensitive cell lines, read-out: IC50 values from the viability assay, cell lines binned as insensitive): > 3 µM | IC50 ([13]; sensitive cell lines, read-out: IC50 values from the viability assay, cell lines binned as sensitive): 0.002 to 0.017 µM | Phosphorylation of Gab1 (Y627) [14]: inhibited | Phosphorylation of MET (Y1234/1235) [14]: inhibited | phospho-AKT (S473), PI3K pathway [14]: reduction | phospho-ERK (T202/Y204), MAPK pathway [14]: reduction
